Target: T1, Angiotensin II Receptor (Bos taurus, UniProt P25104)
T1 construct: The brownish tissue forming the adrenal cortex is scraped off and finely minced with scissors before homogenization; from tissue; host or cells: beef adrenal cortex, microsomal membranes (100,000×g pellet)
T1 sequence (P25104 1-359): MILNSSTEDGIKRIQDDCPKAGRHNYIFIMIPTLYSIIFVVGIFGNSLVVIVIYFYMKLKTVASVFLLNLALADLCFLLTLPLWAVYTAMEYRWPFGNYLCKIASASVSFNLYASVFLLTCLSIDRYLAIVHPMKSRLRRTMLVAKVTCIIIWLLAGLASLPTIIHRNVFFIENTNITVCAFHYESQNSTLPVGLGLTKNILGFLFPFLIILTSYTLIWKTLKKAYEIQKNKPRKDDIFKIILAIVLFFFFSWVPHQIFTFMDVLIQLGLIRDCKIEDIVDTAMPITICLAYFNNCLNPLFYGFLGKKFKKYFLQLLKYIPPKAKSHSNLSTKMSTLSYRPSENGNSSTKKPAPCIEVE
Assay: Angiotensin II Receptor Binding: displacement of [^125 I](Sar^1,Ile^8)AngII from beef adrenal cortex membranes
Parameters: species or system beef (bovine)
Conditions: radioligand; non-specific binding with 1.0 uM unlabeled (Sar^1,Ile^8)AngII
Text: Beef adrenals are obtained from a local slaughter house (Maxwell-Cohen). [^125 I](Sar^1,Ile^8)AngII, S.A. 2200 Ci/mmole, is purchased from Dupont (NEN®, Boston, Mass.). All unlabeled AngII analogs, Dimethylsulfoxide (DMSO), nucleotides, bovine serum albumin (BSA) are purchased from Sigma Chemical Co., St. Louis, Mo. U.S.A.
Approximately sixteen (16) to twenty (20) beef adrenal glands are processed as follows: fresh adrenal glands received on crushed ice are cleaned of fatty tissues and the tough membranes encapsulating the glands are removed and discarded. The brownish tissue forming the adrenal cortex is scraped off and finely minced with scissors before homogenization. Care is taken to avoid contamination with medullary tissue during dissection. The scraped cortices are suspended in twenty volumes of an ice-cold buffer medium consisting of 10 mM Tris.HCl (pH 7.4 at 22° C.) and containing 1.0 mM EDTA and 0.2M sucrose. Unless otherwise indicated, all subsequent operations are done at 4° C. […] The homogenate is centrifuged first at low speed (3,000×g) for 10 min. […] This P2 pellet is discarded and the liquid phase is carefully decanted off in clean centrifuge tubes and recentrifuged at high speed (100,000×g) for 60 min. The translucent final pellet is harvested and combined in a small volume (20-50.0 ml) of 50.0 mM Tris.HCl buffer, pH 7.2. […] The pelleted membrane is reconstituted in 50.0 mM Tris.HCl buffer containing 0.1 mM of phenylmethylsulfonyl fluoride (PMSF) to give approximately a protein concentration of 2.5 mg per ml of tissue suspension. The membrane preparation is finally aliquoted in 1.0 ml volumes and stored at -70° C. until use in the binding assays. […]
The wells are left undisturbed for 60 min. at room temperature. […] The filters are removed from the filter grid and counted in a Parkard® Cobra Gamma Counter for 1 min. […] The binding data are analyzed by the non-linear interactive "LUNDON-1" program (LUNDON SOFTWARE Inc., Cleveland, Ohio U.S.A.).

Specific binding: greater than 90%
Substance: [^125 I](Sar^1,Ile^8)AngII [reference compound]
